# Laboratory results reported in patent publication US7569541B2 (priority 2003, dated 2009).
# System: P. falciparum
# Conditions: in vivo
substance,measurement,value
Asn-Pro-Asn-Ala-Asn-(Apro-Asn-Ala-Asn-Pro-Asn-Ala-Asn-Pro-Asn-Glu)cyclo-Asn-Pro-Asn-Ala attached to a PE moiety [UK39],Antigenicity,excellent
